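1) Cells in 96-well plates. 2) Compound, 48 h, 5 concentrations. 3) Linear interpolation between surrounding doses. 4) Unreached endpoint = highest concentration. TGI marks complete inhibition of growth.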
Tests used:
Experiment in all cases: growth of human tumour cells (NCI), 48 h
[1] = system: IGROV1 ovarian
[2] = system: SN12C renal
[3] = system: ACHN renal
[4] = system: OVCAR-4 ovarian
[5] = system: SW-620 colon
[6] = system: MOLT-4 leukemia
[7] = system: RPMI-8226 leukemia
[8] = system: PC-3 prostate
[9] = system: SF-295 CNS
[10] = system: HCT-116 colon
[11] = system: TK-10 renal
[12] = system: COLO 205 colon
[13] = system: UO-31 renal
[14] = system: HCC-2998 colon
[15] = system: LOX IMVI melanoma
[16] = system: T-47D breast
[17] = system: OVCAR-5 ovarian
[18] = system: SK-OV-3 ovarian
[19] = system: NCI/ADR-RES ovarian
[20] = system: HS 578T breast
[21] = system: NCI-H460 lung
[22] = system: HT29 colon
[23] = system: CAKI-1 renal
[24] = system: HCT-15 colon
[25] = system: M14 melanoma
[26] = system: HOP-92 NSCLC
[27] = system: U251 CNS
[28] = system: SK-MEL-2 melanoma
[29] = system: MCF7 breast
[30] = system: SNB-75 CNS
[31] = system: A549 NSCLC
[32] = system: K-562 leukemia
[33] = system: MDA-MB-435
[34] = system: OVCAR-3 ovarian
[35] = system: MDA-N
[36] = system: NCI-H226 lung
[37] = system: SR leukemia
[38] = system: A498 renal
[39] = system: SNB-19 CNS
[40] = system: HL-60(TB) leukemia
[41] = system: OVCAR-8 ovarian
[42] = system: NCI-H522 lung
[43] = system: NCI-H23 lung
[44] = system: MDA-MB-231 breast
[45] = system: SK-MEL-5 melanoma
[46] = system: CCRF-CEM leukemia
[47] = system: HOP-62 NSCLC
[48] = system: SK-MEL-28 melanoma
[49] = system: DU-145 prostate
[50] = system: UACC-257 melanoma
[51] = system: EKVX NSCLC
[52] = system: SF-268 CNS
[53] = system: RXF 393 renal
[54] = system: 786-0 renal
[55] = system: BT-549 breast
[56] = system: MALME-3M melanoma
[57] = system: UACC-62 melanoma
[58] = system: KM12 colon
[59] = system: SF-539 CNS

`C=C[C@@](C)(/C=C/c1ccc(O)cc1)CCC=C(C)C` gave a TGI [1] of 30.5 µM, a TGI [2] of 35.3 µM and a TGI [3] of 22.4 µM. For the same compound, the TGI [4] was 28.6 µM, the TGI [5] was 34 µM and the TGI [6] was 28 µM. For the same compound, the TGI [7] was 32.3 µM, the TGI [8] was 30.4 µM and the TGI [9] was 34.4 µM. The TGI [10] was 32.2 µM, the TGI [11] was 32.3 µM and the TGI [12] was 33.1 µM. For the same compound, the TGI [13] was 32.4 µM, the TGI [14] was 35.5 µM and the TGI [15] was 32.2 µM. The TGI [16] was 28.7 µM, the TGI [17] was 33.5 µM and the TGI [18] was 30 µM. It also gave a TGI [19] of 31 µM, a TGI [20] of 46.9 µM and a TGI [21] of 29.2 µM. For the same compound, the TGI [22] was 32.8 µM, the TGI [23] was 32.6 µM and the TGI [24] was 32.7 µM. The TGI [25] was 35.3 µM, the TGI [26] was 32 µM and the TGI [27] was 30.6 µM. For the same compound, the TGI [28] was 37.3 µM, the TGI [29] was 35.2 µM and the TGI [30] was 26.9 µM. For the same compound, the TGI [31] was 35.1 µM, the TGI [32] was 29.9 µM and the TGI [33] was 33.9 µM. The TGI [34] was 32.2 µM, the TGI [35] was 31 µM and the TGI [36] was 35.4 µM. It also gave a TGI [37] of 32.1 µM, a TGI [38] of 35.6 µM and a TGI [39] of 34.7 µM. The TGI [40] was 29.7 µM, the TGI [41] was 35.2 µM and the TGI [42] was 30.9 µM. The TGI [43] was 30.4 µM, the TGI [44] was 35.8 µM and the TGI [45] was 30.7 µM. For the same compound, the TGI [46] was 31 µM, the TGI [47] was 33.8 µM and the TGI [48] was 35.7 µM. The TGI [49] was 26.1 µM and the TGI [50] was 31.9 µM.

In the case of `OC(c1cc(-c2ccccc2)nc2c1ccc1ccccc12)C1CCCCN1` (centres undefined), the TGI [1] is reported as 2.98 µM, the TGI [2] is reported as 3.1 µM and the TGI [3] is reported as 3.26 µM. For the same compound, the TGI [6] was over 100 µM, the TGI [8] was 3.07 µM and the TGI [9] was 3.44 µM. The TGI [10] was 2.92 µM, the TGI [11] was 3.5 µM and the TGI [13] was 2.45 µM. For the same compound, the TGI [14] was 0.586 µM, the TGI [51] was 5.4 µM and the TGI [18] was 3.32 µM. For the same compound, the TGI [20] was 3.53 µM, the TGI [21] was 3.62 µM and the TGI [23] was 4.04 µM. For the same compound, the TGI [25] was 3.22 µM, the TGI [52] was 2.88 µM and the TGI [53] was 3.03 µM. It also gave a TGI [26] of 3.56 µM, a TGI [27] of 3.15 µM and a TGI [28] of 3.17 µM. For the same compound, the TGI [30] was 3.43 µM, the TGI [54] was 3.04 µM and the TGI [32] was over 100 µM. It also gave a TGI [33] of 3.33 µM, a TGI [34] of 3.29 µM and a TGI [35] of 2.97 µM. It also gave a TGI [36] of over 100 µM, a TGI [55] of 25 µM and a TGI [38] of 3.76 µM. The TGI [40] was 1.13 µM, the TGI [44] was 3.36 µM and the TGI [45] was 8.55 µM. The TGI [56] was 3.19 µM, the TGI [47] was 3.24 µM and the TGI [48] was 3.18 µM. For the same compound, the TGI [49] was 3.45 µM, the TGI [50] was 3.41 µM and the TGI [57] was 3.46 µM. For the same compound, the TGI [58] was 3.35 µM.

With `O=C(CSc1nc2ccc(I)cc2c(=O)n1Cc1ccccc1)NN1C(=O)CCC1=O` the TGI [1] was 90.9 µM, the TGI [2] was over 100 µM and the TGI [3] was 34.6 µM. For the same compound, the TGI [4] was 75.9 µM, the TGI [5] was over 100 µM and the TGI [6] was over 100 µM. For the same compound, the TGI [7] was over 100 µM, the TGI [8] was over 100 µM and the TGI [9] was over 100 µM. It also gave a TGI [10] of over 100 µM, a TGI [11] of over 100 µM and a TGI [12] of over 100 µM. The TGI [14] was over 100 µM, the TGI [15] was over 100 µM and the TGI [16] was over 100 µM. It also gave a TGI [17] of over 100 µM, a TGI [51] of over 100 µM and a TGI [18] of over 100 µM. For the same compound, the TGI [19] was over 100 µM, the TGI [21] was over 100 µM and the TGI [22] was over 100 µM. It also gave a TGI [23] of 6.91 µM, a TGI [24] of over 100 µM and a TGI [25] of over 100 µM. It also gave a TGI [52] of over 100 µM, a TGI [53] of 62.5 µM and a TGI [26] of 64.7 µM. For the same compound, the TGI [27] was over 100 µM, the TGI [28] was over 100 µM and the TGI [29] was over 100 µM. The TGI [30] was over 100 µM, the TGI [54] was over 100 µM and the TGI [31] was over 100 µM. It also gave a TGI [32] of over 100 µM, a TGI [33] of over 100 µM and a TGI [34] of 70.6 µM. For the same compound, the TGI [35] was over 100 µM, the TGI [36] was 84.6 µM and the TGI [59] was over 100 µM. It also gave a TGI [37] of over 100 µM, a TGI [39] of over 100 µM and a TGI [40] of 87.6 µM. The TGI [41] was over 100 µM, the TGI [42] was 47.1 µM and the TGI [43] was 66.6 µM. The TGI [44] was over 100 µM, the TGI [45] was over 100 µM and the TGI [46] was over 100 µM. It also gave a TGI [47] of over 100 µM, a TGI [48] of over 100 µM and a TGI [49] of over 100 µM. For the same compound, the TGI [50] was over 100 µM, the TGI [57] was over 100 µM and the TGI [58] was over 100 µM.

From PubChem BioAssay (NCI)
